The record followed here is US11058742B2, “Food composition for suppressing hepatic lipogenesis” (FUJI OIL HOLDINGS INC., priority 2019, dated 2021).

The test system of test [1] is Fasn gene mRNA. Description: Secondary screening: expression level of Fasn gene mRNA in isolated hepatocyte derived from wild-type mouse. Format: cell-based, mouse (C57BL/6J). The settings on record: each peptide 100 μg/ml final concentration, 24 hours, with insulin, LXR agonist, amino acid mixture; vs control (10% DMSO). The protocol:
(§1) In the secondary screening, evaluation is performed by measuring the expression level of Fasn gene mRNA using isolated hepatocyte derived from wild-type mouse (C57BL/6J mouse). More specifically, isolated hepatocyte derived from wild-type mouse (C57BL/6J mouse) is plated in 12-well plate in Dulbecco's modified Eagle's medium (DMEM) containing 1% penicillin and streptomycin, and 10% fetal calf serum (FCS) for 8 hours, and then subjected to 16 hours starvation by replacing the medium with Dulbecco's modified Eagle's medium (DMEM) containing 1% penicillin and streptomycin. The medium is recovered and cultured for 24 hours in a medium containing insulin, liver X receptor (LXR) agonist, amino acid mixture, and each peptide (100 μg/ml in the medium at final concentration). In addition, as a group without adding peptide, a sample to which 10% dimethyl sulfoxide (DMSO) is added instead of the peptide is similarly cultured for 24 hours. After removing the medium from each well, mRNA is extracted. The extraction of mRNA is performed with the SV Total RNA Isolation System (Promega, Z3105), reverse transcription from the RNA is performed with the PrimeScript RT reagent kit (Takara, RR0037A), and quantitative PCR is performed with the CFX384 Real-Time System and C1000 Thermal Cycler using the SYBR Select Master Mix kit (Life technologies, 4472908). The methods comply with the instructions for the kit and equipment.

In test [2] the test system is Fasn gene mRNA. The test is described as follows: Tertiary screening: Fasn gene expression level with changed amount of peptide. Format: cell-based, mouse (C57BL/6J). The settings on record: for effect of suppressing hepatic lipogenesis: conclusion from the results of primary to tertiary screening; for Fasn gene expression level (significantly reduced compared to the blank): final concentration of the sample 10, 30, 100 μg/ml, otherwise as secondary screening. On the procedure: as §1
The amount of peptide to be added is changed (as used herein, the final concentration of the sample is 10, 30, 100 μg/ml, unless otherwise specified), and the expression level of the Fasn gene is evaluated in the same manner as in the secondary screening.

Turning to Tyr-Tyr, the “Fasn gene expression level (significantly reduced compared to the blank)” value with Fasn gene mRNA [1] is “significantly suppressed the expression of the Fasn gene”. Moreover, in the test on Fasn gene mRNA [2], the “effect of suppressing hepatic lipogenesis” value is reported as “an effect of suppressing hepatic lipogenesis was confirmed” and the “Fasn gene expression level (significantly reduced compared to the blank)” value was “significantly suppressed the expression of the Fasn gene”.

With Val-Met, the “Fasn gene expression level (significantly reduced compared to the blank)” value in the test with Fasn gene mRNA [1] is “significantly suppressed the expression of the Fasn gene”. In the test with Fasn gene mRNA [2], the “effect of suppressing hepatic lipogenesis” value was “an effect of suppressing hepatic lipogenesis was confirmed” and the “Fasn gene expression level (significantly reduced compared to the blank)” value was “significantly suppressed the expression of the Fasn gene”.
